Results taken from patent publication US11306064B2, “Benzothia(di)azepine compounds and their use as bile acid modulators” (Albireo AB, priority 2018, dated 2022).

Columns and labels:
HepaRG cells = assay: HepaRG-based assay: 3H-taurocholic acid uptake in differentiated HepaRG cells; type: cell-based; conditions: 0.3 μM 3H-taurocholic acid and 7.5 μM cold taurocholic acid, 30 minutes
How it was run: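 Differentiated HepaRG cells cultured 7 days post-seeding were exposed for 30 min at 37 °C to 0.3 μM 3H-taurocholic acid plus 7.5 μM cold taurocholic acid with inhibitor (3-fold dilutions, 0.2% DMSO). Uptake was stopped on ice, washed with 1 mM unlabelled taurocholic acid, and counted by scintillation.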

Human LBAT = target: T1, Human LBAT (Homo sapiens, UniProt Q14973); assay: LBAT (h/m) assay: 3H-taurocholic acid uptake in human LBAT-overexpressing cells; type: cell-based; conditions: 0.3 μM 3H-taurocholic acid and 7.5 μM cold taurocholic acid, 20 minutes, read-out: hLBAT IC50
T1 construct: expressed in transfected cells; kept under Geneticin selection
T1 sequence (Q14973 1-349): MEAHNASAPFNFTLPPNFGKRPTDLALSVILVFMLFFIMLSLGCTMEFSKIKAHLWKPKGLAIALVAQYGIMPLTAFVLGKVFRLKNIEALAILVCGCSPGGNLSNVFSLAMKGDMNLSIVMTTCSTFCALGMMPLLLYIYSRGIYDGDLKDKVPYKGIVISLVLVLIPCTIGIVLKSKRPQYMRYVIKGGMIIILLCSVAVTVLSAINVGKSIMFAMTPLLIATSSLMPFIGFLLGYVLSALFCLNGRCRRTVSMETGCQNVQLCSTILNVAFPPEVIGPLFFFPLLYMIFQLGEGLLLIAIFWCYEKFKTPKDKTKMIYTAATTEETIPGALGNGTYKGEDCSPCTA
How it was run: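 LBAT-overexpressing cells, serum-free MEM-alpha, 20 min at 37° C with inhibitor (3-fold, 10-point) plus 0.3 μM 3H-taurocholic acid and cold taurocholic acid (7.5 μM human; 25 μM mouse), 0.2% DMSO. Stopped on ice, washed with 1 mM unlabelled taurocholate; uptake by scintillation counting.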

[1] = Bioavailability studies in mice; type: in vivo; conditions: mouse; C57BL/6 mice; single intravenous dose 1 mg/kg vs single oral dose 10 mg/kg; plasma LC-MS/MS
Method: C57BL/6 mice of 8-9 weeks old were used. For each test compound, two groups of 3 animals each were used. One group was administered a single intravenous dose of 1 mg/kg (vehicle 100% DMSO) through the tail vein and the other group was administered a single oral dose of 10 mg/kg through gavage needle. The group that was administered an oral dose was fasted overnight. Blood samples were collected after 0.083, 0.25, 0.5, 1, 2, 4, 6, 8 and 24 hours following intravenous administration, and after 0.25, 0.5, 1, 2, 4, 6, 8 and 24 hours following oral administration. Blood samples were taken from saphenous vein. 0.2% EDTA was used as the anticoagulant. The samples were analyzed by a discovery grade bioanalytical method developed for the estimation of test compound in plasma, using an LC-MS/MS system.

SMILES | IC50 (HepaRG cells; Homo sapiens, HepaRG) [nM] | IC50 (Human LBAT) [nM] | bioavailability [1] [%] | IC50 (HepaRG cells) [nM]
CCCCC1(CC)CN(c2ccccc2)c2cc(Br)c(O/C=C/C(=O)O)cc2S(=O)(=O)C1 (single isomer, unassigned) [Example 6, (E)-3-((7-bromo-3-butyl-3-ethyl-1,1-dioxido-5-phenyl-2,3,4,5-tetrahydro-1,5-benzothiazepin-8-yl)oxy)acrylic acid] | 809 | 156 | 100 | –
CCCCC1(CC)CN(c2ccccc2)c2cc(SC)c(O/C=C/C(=O)O)cc2S(=O)(=O)C1 (single isomer, unassigned) [Example 18, (E)-3-((3-butyl-3-ethyl-7-(methylthio)-1,1-dioxido-5-phenyl-2,3,4,5-tetrahydro-1,5-benzothiazepin-8-yl)oxy)acrylic acid] | 1260 | 80 | 35 | –
CCCCC1(CCCC)CN(c2ccccc2)c2cc(SC)c(O/C=C(\F)C(=O)O)cc2S(=O)(=O)C1 [Example 11, (Z)-3-((3,3-dibutyl-7-(methylthio)-1,1-dioxido-5-phenyl-2,3,4,5-tetrahydro-1,5-benzothiazepin-8-yl)oxy)-2-fluoroacrylic acid] | 1090 | 45 | 27 | –

Now from value to molecule:

IC50 (HepaRG cells; Homo sapiens, HepaRG) [nM] | IC50 (Human LBAT) [nM] | bioavailability [1] [%] | IC50 (HepaRG cells) [nM] | SMILES
– | 8 | 44 | 405 | CCCCC1(CC)CN(c2ccccc2)c2cc(SC)c(O/C=C(\F)C(=O)O)cc2S(=O)(=O)C1 (single isomer, unassigned) [Example 43, (Z)-3-((3-butyl-3-ethyl-7-(methylthio)-1,1-dioxido-5-phenyl-2,3,4,5-tetrahydro-1,5-benzothiazepin-8-yl)oxy)-2-fluoroacrylic acid]
– | 8.1 | 18 | 260 | CCCCC1(CC)CN(c2ccccc2)c2cc(Cl)c(O/C=C(\F)C(=O)O)cc2S(=O)(=O)C1 (single isomer, unassigned) [Example 48, (Z)-3-((3-butyl-7-chloro-3-ethyl-1,1-dioxido-5-phenyl-2,3,4,5-tetrahydro-1,5-benzothiazepin-8-yl)oxy)-2-fluoroacrylic acid]
205 | 9.1 | 100 | – | CCC1(CC)CN(c2ccccc2)c2cc(SC)c(O/C=C(\F)C(=O)O)cc2S(=O)(=O)C1 [Example 44, (Z)-3-((3,3-diethyl-7-(methylthio)-1,1-dioxido-5-phenyl-2,3,4,5-tetrahydro-1,5-benzothiazepin-8-yl)oxy)-2-fluoroacrylic Acid]
